Laboratory results published in patent US20230340406A1, “METHODS AND COMPOSITIONS FOR PRODUCING STEM CELL DERIVED SPINAL GABA INHIBITORY NEURONS FOR USE IN TREATMENT OF SPINAL CORD INJURY” (BrainXell, Inc., priority 2020, published 2023).

Test system: SCI model in rats
Assay: Spasticity: amplitude of the Hoffman reflex (H-reflex)
Assay type: in vivo, rat
Conditions: for H % following CNO: 12 weeks
Excerpt: Taking advantage of the DREADD-expressing neural cells we transplanted, we asked if the therapeutic effects depend on the activity of the grafted cells.

## C[N+]1([O-])CCN(C2=Nc3cc(Cl)ccc3Nc3ccccc32)CC1 [CNO]
cell-transplanted rats (DREADD-expressing cells), 3 mg/kg, 6 weeks, 2 Hz
  H % following CNO injection: 47%±4.12%
cell-transplanted rats, 3 mg/kg, 6 weeks, 1 Hz
  decrease of H % following CNO injection: not at 1 Hz
cell-transplanted rats, 3 mg/kg, 6 weeks, 5 Hz
  H % following CNO injection: 28.21%±5.63%
cell-transplanted rats, 1 Hz
  H % following CNO: 26.05%±5.64%
cell-transplanted rats, 2 Hz
  H % following CNO: 17.57%±4.98%
cell-transplanted rats, 5 Hz
  H % following CNO: 9.09%±1.52%
Control animals: sham operation, SCI, SCI injected with medium
  change of H % in response to CNO treatment: did not show any changes
